Where “and” joins values, the source holds several entries; their conditions need not be identical. Equal entries are not always repeated. HELM strings list units from the 5' end as sugar, base in round brackets, then linkage (d deoxyribose, r ribose, m 2'-O-methyl, p phosphodiester). Strings are as the collection lists them, not checked against the first reports. ss, as = sense and antisense strand; [lna] = locked nucleic acid (LNA); [una] = unlocked nucleic acid; [fl2r] = 2'-fluoro

Among the data in the OligoGym collection are target mRNA knockdown values, retold here.
Also: test system not given here.

The conditions of this data set: siRNA.
Take “RNA1{r(U)p.r(C)p.r(C)p.r(U)p.r(A)p.r(C)p.r(A)p.r(G)p.r(C)p.r(A)p.r(C)p.r(A)p.r(A)p.r(C)p.r(A)p.r(A)p.r(A)p.r(U)p.r(G)p.d(U)p.d(G)}|RNA2{r(C)p.r(A)p.r(U)p.r(U)p.r(U)p.r(G)p.r(U)p.r(U)p.r(G)p.r(U)p.r(G)p.r(C)p.r(U)p.r(G)p.r(U)p.r(A)p.r(G)p.r(G)p.r(A)p.d(A)p.d(G)}$$$RNA1{StrandType:ss}|RNA2{StrandType:as}$”: the target mRNA knockdown is 25% and 0%.

As for “RNA1{r(U)p.r(C)p.r(C)p.r(U)p.r(A)p.r(C)p.r(A)p.r(G)p.r(C)p.r(A)p.r(C)p.r(A)p.r(A)p.r(C)p.r(A)p.r(A)p.r(A)p.r(U)p.r(G)p.d(U)p.d(G)}|RNA2{r(C)p.r(A)p.r(U)p.r(U)p.r(U)p.r(G)p.r(U)p.r(U)p.r(G)p.r(U)p.r(G)p.r(C)p.r(U)p.r(G)p.r(U)p.r(A)p.r(G)p.r(G)p.r(A)p.d(T)p.d(T)}$$$RNA1{StrandType:ss}|RNA2{StrandType:as}$”, the target mRNA knockdown was determined as 54%.

Turning to “RNA1{r(U)p.r(C)p.r(C)p.r(U)p.r(C)p.r(G)p.r(U)p.m(C)p.r(G)p.r(U)p.r(C)p.m(U)p.r(G)p.r(U)p.r(U)p.r(C)p.m(U)p.r(A)p.r(A)p.r(T)p.r(T)}|RNA2{r(U)p.m(U)p.r(A)p.r(G)p.r(A)p.r(A)p.m(C)p.r(A)p.r(G)p.r(A)p.r(C)p.r(G)p.r(A)p.r(C)p.r(G)p.r(A)p.r(G)p.r(G)p.r(A)p.r(T)p.r(T)}$$$RNA1{StrandType:ss}|RNA2{StrandType:as}$”, the target mRNA knockdown was found to be 82%.

With “RNA1{r(U)p.r(C)p.r(C)p.r(U)p.r(C)p.r(G)p.r(U)p.r(C)p.[fl2r](G)p.r(U)p.r(C)p.[fl2r](U)p.[fl2r](G)p.r(U)p.r(U)p.r(C)p.[fl2r](U)p.r(A)p.r(A)p.r(T)p.r(T)}|RNA2{r(U)p.[fl2r](U)p.r(A)p.r(G)p.r(A)p.r(A)p.[fl2r](C)p.r(A)p.r(G)p.r(A)p.r(C)p.r(G)p.r(A)p.r(C)p.r(G)p.r(A)p.r(G)p.r(G)p.r(A)p.r(T)p.r(T)}$$$RNA1{StrandType:ss}|RNA2{StrandType:as}$”, the target mRNA knockdown was determined as 77%.

For the substance “RNA1{r(U)p.r(C)p.r(C)p.r(U)p.r(C)p.r(G)p.r(U)p.r(C)p.r(G)p.r(U)p.r(C)p.r(U)p.r(G)p.r(U)p.r(U)p.r(C)p.[fl2r](U)p.r(A)p.r(A)p.r(T)p.r(T)}|RNA2{r(U)p.[fl2r](U)p.r(A)p.r(G)p.r(A)p.r(A)p.[fl2r](C)p.r(A)p.r(G)p.r(A)p.r(C)p.r(G)p.r(A)p.r(C)p.r(G)p.r(A)p.r(G)p.r(G)p.r(A)p.r(T)p.r(T)}$$$RNA1{StrandType:ss}|RNA2{StrandType:as}$”, the target mRNA knockdown amounted to 74%.

The substance “RNA1{r(U)p.r(C)p.r(C)p.r(U)p.r(C)p.r(G)p.r(U)p.r(C)p.r(G)p.r(U)p.r(C)p.r(U)p.r(G)p.r(U)p.r(U)p.r(C)p.m(U)p.r(A)p.r(A)p.r(T)p.r(T)}|RNA2{r(U)p.m(U)p.r(A)p.r(G)p.r(A)p.r(A)p.r(C)p.r(A)p.r(G)p.r(A)p.r(C)p.r(G)p.r(A)p.r(C)p.r(G)p.r(A)p.r(G)p.r(G)p.r(A)p.r(T)p.r(T)}$$$RNA1{StrandType:ss}|RNA2{StrandType:as}$” yielded a target mRNA knockdown of 84%.

As to “RNA1{r(U)p.r(C)p.r(G)p.r(G)p.r(G)p.r(A)p.r(A)p.r(A)p.r(U)p.r(U)p.r(U)p.r(C)p.r(U)p.r(C)p.r(U)p.r(A)p.r(U)p.r(U)p.r(A)p.d(T)p.d(T)}|RNA2{r(U)p.r(A)p.r(A)p.r(U)p.r(A)p.r(G)p.r(A)p.r(G)p.r(A)p.r(A)p.r(A)p.r(U)p.r(U)p.r(U)p.r(C)p.r(C)p.r(C)p.r(G)p.r(A)p.d(T)p.d(T)}$$$RNA1{StrandType:ss}|RNA2{StrandType:as}$”, the target mRNA knockdown was 94% and 80%.

As for “RNA1{r(U)p.r(C)p.r(U)p.r(C)p.r(G)p.m(U)p.m(A)p.r(A)p.r(G)p.r(G)p.r(A)p.r(C)p.r(G)p.r(A)p.m(A)p.r(A)p.m(C)p.r(G)p.r(A)p.r(T)p.r(T)}|RNA2{r(U)p.r(C)p.r(G)p.r(U)p.r(U)p.r(U)p.r(C)p.r(G)p.r(U)p.r(C)p.r(C)p.r(U)p.m(U)p.r(A)p.r(C)p.r(G)p.r(A)p.r(G)p.r(A)p.r(T)p.r(T)}$$$RNA1{StrandType:ss}|RNA2{StrandType:as}$”, the target mRNA knockdown was 52%.

Take “RNA1{r(U)p.r(C)p.r(U)p.r(C)p.r(G)p.r(U)p.r(A)p.r(A)p.r(G)p.r(G)p.r(A)p.r(C)p.r(G)p.r(A)p.r(A)p.r(A)p.r(C)p.r(G)p.r(A)p.r(T)p.r(T)}|RNA2{r(U)p.r(C)p.r(G)p.r(U)p.r(U)p.r(U)p.r(C)p.r(G)p.r(U)p.r(C)p.r(C)p.r(U)p.m(U)p.r(A)p.r(C)p.r(G)p.r(A)p.r(G)p.r(A)p.r(T)p.r(T)}$$$RNA1{StrandType:ss}|RNA2{StrandType:as}$”: the target mRNA knockdown amounted to 55%.

On to “RNA1{r(U)p.r(G)p.r(A)p.r(A)p.r(C)p.r(G)p.r(U)p.m(C)p.r(A)p.r(C)p.r(C)p.r(G)p.r(A)p.r(G)p.r(G)p.r(A)p.r(G)p.r(A)p.r(A)p.r(T)p.r(T)}|RNA2{r(U)p.r(U)p.r(C)p.r(U)p.r(C)p.r(C)p.r(U)p.r(C)p.r(G)p.r(G)p.r(U)p.r(G)p.r(A)p.r(C)p.r(G)p.r(U)p.r(U)p.m(C)p.r(A)p.r(T)p.r(T)}$$$RNA1{StrandType:ss}|RNA2{StrandType:as}$”, for which the target mRNA knockdown is 85%.

“RNA1{r(U)p.r(G)p.r(A)p.r(A)p.r(U)p.r(C)p.r(A)p.r(G)p.r(A)p.r(A)p.r(G)p.r(A)p.r(U)p.r(G)p.r(A)p.r(A)p.r(G)p.r(U)p.r(C)p.r(A)p.r(A)}|RNA2{[una](G)p.r(A)p.r(C)p.r(U)p.r(U)p.r(C)p.r(A)p.r(U)p.r(C)p.r(U)p.r(U)p.r(C)p.r(U)p.r(G)p.r(A)p.r(U)p.r(U)p.r(C)p.r(A)p.r(A)p.r(G)}$$$RNA1{StrandType:ss}|RNA2{StrandType:as}$”: the target mRNA knockdown was 94% and 92%.

In turn, “RNA1{r(U)p.r(G)p.r(A)p.r(G)p.r(A)p.r(G)p.r(A)p.r(A)p.r(A)p.r(G)p.r(C)p.r(A)p.r(C)p.r(A)p.r(G)p.r(A)p.r(A)p.r(A)p.r(A)p.d(T)p.d(T)}|RNA2{[lna](T)p.r(U)p.r(U)p.r(U)p.r(C)p.r(U)p.r(G)p.r(U)p.r(G)p.r(C)p.r(U)p.r(U)p.r(U)p.r(C)p.r(U)p.r(C)p.r(U)p.r(C)p.r(A)p.[lna](T)p.[lna](T)}$$$RNA1{StrandType:ss}|RNA2{StrandType:as}$” displayed a target mRNA knockdown of 34%.

In turn, “RNA1{r(U)p.r(G)p.r(A)p.r(G)p.r(A)p.r(G)p.r(A)p.r(A)p.r(A)p.r(G)p.r(C)p.r(A)p.r(C)p.r(A)p.r(G)p.r(A)p.r(A)p.r(A)p.r(A)p.r(T)p.r(T)}|RNA2{[lna](T)p.r(U)p.r(U)p.r(U)p.r(C)p.r(U)p.r(G)p.r(U)p.r(G)p.r(C)p.r(U)p.r(U)p.r(U)p.r(C)p.r(U)p.r(C)p.r(U)p.r(C)p.r(A)p.[lna](T)p.[lna](T)}$$$RNA1{StrandType:ss}|RNA2{StrandType:as}$” displayed a target mRNA knockdown of 45%.

“RNA1{r(U)p.r(U)p.m(A)p.m(C)p.r(A)p.r(A)p.r(A)p.r(G)p.r(G)p.r(A)p.r(U)p.r(C)p.r(U)p.r(C)p.r(C)p.r(U)p.r(C)p.r(C)p.r(C)p.r(T)p.r(T)}|RNA2{r(G)p.r(G)p.r(G)p.r(A)p.r(G)p.r(G)p.r(A)p.r(G)p.r(A)p.r(U)p.r(C)p.r(C)p.r(U)p.r(U)p.r(U)p.r(G)p.m(U)p.r(A)p.r(A)p.r(T)p.r(T)}$$$RNA1{StrandType:ss}|RNA2{StrandType:as}$” returned a target mRNA knockdown of 74%.

“RNA1{r(U)p.r(U)p.m(U)p.r(G)p.r(A)p.r(U)p.m(C)p.r(A)p.r(G)p.r(C)p.r(G)p.r(G)p.r(A)p.r(G)p.r(A)p.r(C)p.r(U)p.r(C)p.r(G)p.r(T)p.r(T)}|RNA2{r(C)p.r(G)p.r(A)p.r(G)p.r(U)p.r(C)p.r(U)p.r(C)p.r(C)p.r(G)p.r(C)p.m(U)p.r(G)p.r(A)p.r(U)p.m(C)p.r(A)p.r(A)p.r(A)p.r(T)p.r(T)}$$$RNA1{StrandType:ss}|RNA2{StrandType:as}$”: the target mRNA knockdown was found to be 89%.

In the case of “RNA1{r(U)p.r(U)p.r(C)p.[fl2r](U)p.r(A)p.r(A)p.r(C)p.r(C)p.r(G)p.r(G)p.r(G)p.[fl2r](C)p.r(A)p.r(G)p.r(C)p.r(U)p.r(U)p.r(C)p.r(U)p.r(T)p.r(T)}|RNA2{r(A)p.r(G)p.r(A)p.r(A)p.r(G)p.r(C)p.[fl2r](U)p.r(G)p.r(C)p.r(C)p.r(C)p.r(G)p.r(G)p.r(U)p.[fl2r](U)p.r(A)p.r(G)p.r(A)p.r(A)p.r(T)p.r(T)}$$$RNA1{StrandType:ss}|RNA2{StrandType:as}$”, the target mRNA knockdown worked out at 71%.

Take “RNA1{r(U)p.r(U)p.r(C)p.[fl2r](U)p.r(A)p.r(A)p.r(C)p.r(C)p.r(G)p.r(G)p.r(G)p.r(C)p.r(A)p.r(G)p.r(C)p.r(U)p.r(U)p.r(C)p.r(U)p.r(T)p.r(T)}|RNA2{r(A)p.r(G)p.r(A)p.r(A)p.r(G)p.r(C)p.r(U)p.r(G)p.r(C)p.r(C)p.r(C)p.r(G)p.r(G)p.r(U)p.[fl2r](U)p.r(A)p.r(G)p.r(A)p.r(A)p.r(T)p.r(T)}$$$RNA1{StrandType:ss}|RNA2{StrandType:as}$”: the target mRNA knockdown turned out to be 72%.

As to “RNA1{r(U)p.r(U)p.r(U)p.[fl2r](C)p.[fl2r](C)p.[fl2r](C)p.[fl2r](C)p.[fl2r](C)p.r(A)p.r(G)p.r(G)p.r(U)p.r(A)p.r(A)p.[fl2r](C)p.r(G)p.r(A)p.r(U)p.r(U)p.r(T)p.r(T)}|RNA2{r(A)p.r(A)p.r(U)p.[fl2r](C)p.r(G)p.r(U)p.r(U)p.[fl2r](A)p.[fl2r](C)p.r(C)p.r(U)p.r(G)p.r(G)p.r(G)p.r(G)p.r(G)p.r(A)p.r(A)p.r(A)p.r(T)p.r(T)}$$$RNA1{StrandType:ss}|RNA2{StrandType:as}$”, the target mRNA knockdown stood at 68%.

“RNA1{r(U)p.r(U)p.r(U)p.m(G)p.r(A)p.r(U)p.m(C)p.r(A)p.r(G)p.r(C)p.r(G)p.r(G)p.r(A)p.r(G)p.r(A)p.r(C)p.r(U)p.r(C)p.r(G)p.r(T)p.r(T)}|RNA2{r(C)p.r(G)p.r(A)p.r(G)p.r(U)p.r(C)p.r(U)p.r(C)p.r(C)p.r(G)p.r(C)p.r(U)p.r(G)p.r(A)p.r(U)p.r(C)p.r(A)p.r(A)p.r(A)p.r(T)p.r(T)}$$$RNA1{StrandType:ss}|RNA2{StrandType:as}$” came in with a target mRNA knockdown of 82%.

Substance “RNA1{r(U)p.r(U)p.r(U)p.r(C)p.r(A)p.r(C)p.r(U)p.r(A)p.r(C)p.r(U)p.r(C)p.r(C)p.r(U)p.r(A)p.r(C)p.r(G)p.r(A)p.r(G)p.r(C)p.d(T)p.d(T)}|RNA2{r(G)p.r(C)p.r(U)p.r(C)p.r(G)p.r(U)p.r(A)p.r(G)p.r(G)p.r(A)p.r(G)p.r(U)p.r(A)p.r(G)p.r(U)p.r(G)p.r(A)p.r(A)p.r(A)p.d(T)p.d(T)}$$$RNA1{StrandType:ss}|RNA2{StrandType:as}$” returned a target mRNA knockdown of 0%.
